Data set [1] can be described thus: Solubility under the experimental conditions of the PDE-IV enzyme assay.
Protocol: The PDE-4 enzyme source used was U937 cell cytosolic fraction prepared by sonication. The enzyme reaction was carried out, with the cytosolic fraction as the enzyme source, in the presence of cAMP (1 μM) at 30° C. in the presence or absence of NCE for 45-60 min. An aliquot of this reaction mixture was taken further for the ELISA assay to determine level of cAMP in the sample. The concentration of the cAMP in the sample directly correlates with the degree of PDE-4 enzyme inhibition.
The test system of data set [2] is TNF-α release, human peripheral blood mononuclear cells. The data set is described as follows: Cell Based Assay for TNF-α Release (LPS stimulation of Human PBMNC's). To be noted: PBMC, LPS 1 μg/ml, TNF-α by ELISA, comparator, 4 repetitions. As for the experimental part: Human whole blood was collected in vacutainer tubes containing heparin or EDTA as an anti coagulant. The blood was diluted (1:1) in sterile phosphate buffered saline and 10 ml. was carefully layered over 5 ml Ficoll Hypaque gradient (density 1.077 g/ml) in a 15 ml conical centrifuge tube. The sample was centrifuged at 3000 rpm for 25 minutes in a swing-out rotor at room temperature. After centrifugation, interface of cells were collected, diluted at least 1:5 with PBS and washed three times by centrifugation at 2500 rpm for 10 minutes at room temperature. The cells were resuspended in serum free RPMI 1640 medium at a concentration of 2 million cells/ml. Alternatively whole blood was used.
LPS stimulation of Human PBMNC's:
PBMN cells (0.1 ml; 2 million/ml) were co-incubated with 20 μl of compound (final DMSO concentration of 0.2%) for 10 min in a flat bottom 96 well microtiter plate. Compounds were dissolved in DMSO initially and diluted in medium for a final concentration of 0.2% DMSO. LPS (1 μg/ml, final concentration) was then added at a volume of 10 μl per well. After 30 min, 20 μl of fetal calf serum (final concentration of 10%) was added to each well. […] The level of TNFα in treated wells was compared with the vehicle treated controls and inhibitory potency of compound was expressed as IC50 values calculated by using Graph pad prism.
For orientation: An ELISA detects its analyte on a solid surface through an enzyme-linked reagent.

The record followed here is patent US20090048247A1, “CONDENSED ISOXALINE DERIVATIVES AS INHIBITORS OF PHOSPHODIESTERASE TYPE - IV” (priority 2005, published 2009).

As a reminder, the melting point is the temperature of the solid-liquid transition. A word on the IC50: it is the point on the concentration scale where inhibition reaches its midpoint.

Turning to `c1cc(OC2CCCC2)c(OC2CCCCCC2)cc1C1=NOC2(CCOC2)C1` (stereo not drawn) [Compound No. 119, 3-[3-(Cycloheptyloxy)-4-(cyclopentyloxy)phenyl]-1,7-dioxa-2-azaspiro[4.4]non-2-ene], the “solubility under the experimental conditions” value in data set [1] is given as “insoluble”.
The compound `COc1ccc(C2=NO[C@]3(CCOC3)C2)cc1OC1CCCC1` [Compound No. 124, (S)-3-[3-(cyclopentyloxy)-4-methoxyphenyl]-1,7-dioxa-2-azaspiro[4.4]non-2-ene] registered a melting point of 110.5 °C.
In the case of `COc1ccc(C2CNC(=O)C2)cc1OC1CCCC1` (stereo not drawn) [rolipram], the IC50 in data set [2] is approximately 240 nM.
